Where “and” joins values, the source holds several entries; their conditions need not be identical. Identical values can stand only once. Counter-ions that a name gives are not always drawn. Like-named read-outs stand apart in the source and are kept apart here.
Legend:
PCP site 2 [1] = assay type: binding, guinea pig
Procedure: (§1) Large batches of frozen membranes were prepared with minor modifications of published procedures (Rothman, et al. (1989), supra). Twenty to thirty frozen guinea pig brains with cerebellum were thawed for 15 minutes and homogenized with a Polytron in ice-cold 5 mM Tris-HCl, pH 8.0 (10 ml/brain). The homogenate was centrifuged at 37,000×g for 10 minutes, and the pellet was washed by resuspension in the same volume of buffer followed by recentrifugation. The pellets were resuspended in an equal volume of 5 mM Tris-HCl, pH 8.0, and the concentration was adjusted to 50 mM by the addition of 1M Tris-HCl, pH 8.0. The homogenate was centrifuged for 10 min at 37,000×g. The pellets were then washed three times by resuspension and centrifugation using 50 mM Tris-HCl, pH 8.0. The final pellets were resuspended in the Tris-HCl buffer (0.5 ml/brain), pooled and 1 ml aliquots were distributed to microfuge tubes, which were stored at -70° for assay.
The [^3 H]TCP binding assay for PCP site 2 was conducted with minor modifications of published protocols (Rothman, et al. (1989), supra). Briefly, 12×75 mm polystyrene test tubes were prefilled with 100 μl of [^3 H]TCP (2 nM final concentration) in a protease inhibitor cocktail (PIC) containing 5000 nM (+) -MK801, 100 μl of distilled H2 O or drug (in distilled H2 0), 50 μl of buffer (5 mM Tris-HCL, pH 8.0), and 750 μl of membrane (0.5-1.0 mg/ml protein, in 5 mM Tris-HCl, pH 8.0). […] The protease inhibitor cocktail was composed of 25 μg/ml leupeptin, 25 μg/ml chymostatin, 0.1 mM EDTA, and 0.1 mM ethylene glycol-bis-(beta-aminoethyl-ether)-N,N,N',N'-tetraacetic acid (EGTA). The incubation time was 18-24 hours at 4° C. (steady state) in a final volume of 1 ml. Triplicate samples were filtered with an MR24 Brandel Cell Harvester and washed with two 5 ml aliquots of ice cold buffer. Whatman GF/B filters were presoaked in buffer containing 2% polyethylenimine. The tritium retained on the filters was measured using a Taurus scintillation counter at 44% efficiency after an overnight extraction into ICN Cytoscint cocktail. Non specific binding was determined using 10 μM of TCP. Protein was determine using the method of Lowry, et al., supra.
(§2) Inhibition curves were fit to the two parameter logistic equation for the best-fit estimates of the IC50 using nonlinear least squares curve fitting methods as previously described (Rothman et al. (1993), supra); Jones, S. M. and Rogawski, M. A. Mol. Neuropharmacol. 2: 303-310 (1992)).
(§3) ^a The binding assays for PCP (site 2) and PCP (site 1) were conducte
(§4) as previously reported (Rothman, R. B., et al., In: Multiple Sigma and PC
(§5) Receptor Ligands: Mechanisms for Neuromodulation and Protection 307-330
(§6) (Domino, E. F. and Kamenka, J. M., eds., 1992) using [^3 H]TCP in the
(§7) presence of (+)MK801 for site 2 and [^3 HMK801 for site 1 except that
the [^3 H]TCP assays were terminated after 18-24 hours of incubation

PCP site 1 = test: [^3 H](+)-MK801 binding to PCP site 1; set-up: species or system guinea pig
Procedure: as §1, with “assay. […]” for “assay.”
as §2, §3, §4, §5, §6, §7

PCP site 2 [2] = conditions: guinea pig brain membranes; literature; cited from earlier work
[3] = Table 1, [^3 H]TCP in presence of (+)MK801, 18-24 hours at 4° C.

Structure (SMILES)	IC50 (PCP site 2 [1]; Table 3, guinea pig membranes)	IC50 (PCP site 1; Table 3, guinea pig membranes) [µM]	also measured
CN1[C@@H](Cc2ccc(Cl)cc2)C[C@@H]2Cc3ccccc3[C@@H]21 (racemic) [RTI-4793-45, (2RS,3aSR,8bRS)-1,2,3,3a,4,8b-Hexahydro-2-(4-chlorobenzyl)-1-methylindeno-[1,2-b]pyrrole Hydrochloride]	0.254 ± 0.018 µM	> 2	
CN1CC[C@@H]2Cc3ccccc3[C@@H]21 (relative stereo) [3a]			affinity/selectivity for PCP site 2 in words (PCP site 2 [1]): low affinity at both sites; IC50 (PCP site 2 [1]; [3]): > 10 µM; affinity for PCP site 1 in words (PCP site 1): low affinity at both sites; IC50 (PCP site 1; Table 1, [^3 H]MK801): > 20 µM
CCOC(=O)[C@H]1C[C@@H]2Cc3ccccc3[C@@H]2N1C (relative stereo) [3d]			IC50 (PCP site 2 [1]; [3]): 16.7 µM; IC50 (PCP site 1; Table 1, [^3 H]MK801): > 20 µM
CC[C@H]1C[C@@H]2Cc3ccccc3[C@@H]2N1C (relative stereo) [3e]			IC50 (PCP site 2 [1]; [3]): 0.326 ± 0.049 µM; relative potency for site 2 versus 3b (PCP site 2 [1]; versus 3b): approximately ten-times less than that of 3b; affinity for PCP site 1 in words (PCP site 1): low affinity at both sites; IC50 (PCP site 1; Table 1, [^3 H]MK801): > 20 µM
CN1[C@H](Cc2c[nH]c3ccccc23)C[C@H]2Cc3ccccc3[C@H]21 (relative stereo) [RTI-4793-44, (2RS, 3aSR, 8bRS) -1,2,3,3a, 4,8b-Hexahydro-2-(3-methanoindole)-1-methylindeno-[1,2-b]pyrrole Hydrochloride]	0.114 ± 0.012 µM	> 2	
COc1ccc(C[C@@H]2C[C@H]3Cc4ccccc4[C@H]3N2C)cc1 (relative stereo) [RTI-4793-46, (2RS,3aSR,8bRS)-1,2,3,3a,4,8b-Hexahydro-2-(4-methoxybenzyl)-1-methylindeno[1,2-b1pyrrole Hydrochloride]	0.148 ± 0.023 µM	> 2	
c1ccc(CC2CC3CN2Cc2ccccc23)cc1 (single isomer, unassigned; (+)) [(+)-RTI-4793-41]	0.0044 ± 0.0007 µM	> 2	IC50 (PCP site 2 [1]; Table 3, guinea pig membranes, listed as (+) optical isomer of RTI-4793-41): 0.0044 µM
c1ccc(CC2CC3CN2Cc2ccccc23)cc1 (single isomer, unassigned; (-)) [(-)-RTI-4793-41]	0.0289 ± 0.003 µM	> 2	
CN1[C@@H](Cc2ccccc2)C[C@@H]2Cc3ccccc3[C@@H]21.O=C(O)c1ccc(O)cc1O [(-)-RTI-4793-14]	0.317 ± 0.0587 µM	> 2	
c1ccc(CC2CC3CN2Cc2ccccc23)cc1 (stereo not drawn) [RTI-4793-41]	0.015 µM and 0.0156 µM	> 2	affinity/selectivity for PCP site 2 in words (PCP site 2 [1]): high affinity and selectivity
BrC1CC2CN(Cc3ccccc32)C1c1ccccc1 (stereo not drawn) [RTI-4793-47]	0.0688 ± 0.0115 µM	> 2	
c1ccc(C2CCC3CN2Cc2ccccc23)cc1 (stereo not drawn) [RTI-4793-48]	0.042 µM and 0.0423 µM	> 2	affinity/selectivity for PCP site 2 in words (PCP site 2 [1]): high affinity and selectivity
COc1ccc(CC2CC3CN2Cc2ccccc23)cc1 (stereo not drawn) [RTI-4793-49]	0.106 ± 0.0138 µM	> 2	
Fc1ccc(CC2CC3CN2Cc2ccccc23)cc1 (stereo not drawn) [RTI-4793-50]	0.0735 ± 0.009 µM	> 2	
c1ccc(CCC2CC3CN2Cc2ccccc23)cc1 (stereo not drawn) [RTI-4793-51]	0.289 ± 0.022 µM	> 2	
c1ccc(CCCCC2CC3CN2Cc2ccccc23)cc1 (stereo not drawn) [RTI-4793-52]	0.302 ± 0.028 µM	> 2	
c1csc(CC2CC3CN2Cc2ccccc23)c1 (stereo not drawn) [RTI-4793-55]	0.0432 ± 0.00658 µM	> 2	
c1csc(C2(N3CCCCC3)CCCCC2)c1 [TCP]			binding of [^3 H]TCP to two sites (PCP site 1 and PCP site 2) (PCP site 2 [2]): high affinity
